Experimental data as given in patent US12084708B1, “Acoustic wave resonator with active shunt capacitance cancellation and systems thereof” (National Technology & Engineering Solutions of Sandia, LLC, priority 2019, dated 2024).

How the values were obtained:
[1] = tested on: E. coli MG1655; assay: Dose response growth curve analysis (OD600), MG1655; type: cell-based
Procedure: To perform an initial test of the sensors' ability to detect response of bacteria to antibiotics, common molecular cloning strains and one pseudo-wild-type strain of E. coli were selected. TOP10, DH5α, and MG1655 strains are sensitive to kanamycin, ampicillin, or chloramphenicol in the absence of a plasmid conferring resistance. Dose response growth curve analysis was performed to determine appropriate concentrations of antibiotic to use with each strain and plasmid combination.

[2] = tested on: E. coli; details: final concentration 1M; positive control for cell death
Procedure: For experiments in which bacteria were applied to the resonator devices, cultures were harvested at late log to early stationary phase. Cells were centrifuged at 5000× g for 5 minutes then resuspended in either fresh LB medium or phosphate-buffered saline. For antibiotic treatment, 200 µg/ml kanamycin was added to cells in the sensor devices.

CC1(C)S[C@@H]2[C@H](NC(=O)[C@H](N)c3ccccc3)C(=O)N2[C@H]1C(=O)O [ampicillin]
concentration at which growth inhibition was observed ([1]; E. coli MG1655 cultures, varying doses, OD600, FIG. 16B): more than 1.56 μg/mL

NC[C@H]1O[C@H](O[C@H]2[C@H](O)[C@@H](O[C@H]3O[C@H](CO)[C@@H](O)[C@H](N)[C@H]3O)[C@H](N)C[C@@H]2N)[C@H](O)[C@@H](O)[C@@H]1O [kanamycin]
minimum concentration that completely blocked growth ([1]; E. coli MG1655 without plasmid, full 24 hr culture time, OD600, FIG. 17): 25 µg/mL

[Na+].[OH-] [sodium hydroxide]
lysis of bacteria [2]: Complete lysis
